Measured values from US6652921B2, “Wood containing fixed sorbic acid or sorbic acid salts” (Nutrinova Nutrition Specialties & Food Ingredients GmbH, priority 2000, dated 2003).

Key:
[1] = cited from earlier work; for Solubility in water: water (cold water for sorbic acid)
[2] = humans; internationally established; cited from earlier work
[3] = mean body weight of 60 kg
Experimental: Sorbic acid and its salts are accordingly permitted for food use by international committees and permitted worldwide as a preservative for direct addition to foods. The internationally established tolerable daily dose for humans of up to 25 mg/kg of body weight corresponds to a tolerable consumption by adults of up to 1.5 g per day (at a mean body weight of 60 kg).

[4] = system: fungi; conditions: cited from earlier work
[5] = system: wood-damaging fungi; conditions: cited from earlier work

## C/C=C/C=C/C(=O)[O-].[K+] [Potassium sorbate]
[1]
  Solubility in water: dissolves very readily in water

## C/C=C/C=C/C(=O)O [Sorbic acid, trans, trans-2,4-hexadienoic acid]
[2]
  Tolerable daily dose: up to 25 mg/kg of body weight
[1]; liquid alcohols
  Solubility in liquid alcohols: good
[1]
  Solubility in water: dissolves only sparingly in cold water
[3]
  Tolerable consumption by adults: up to 1.5 g per day

## C/C=C/C=C/C(=O)[O-].[Na+] [sodium sorbate]
[4]; after a few days
  Growth of fungi on treated bamboo: growth of fungi and poorer results than the dehydroacetic acid
[4]; bamboo
  Activity depending on pH: only active in these studies at a pH of 3.0

## C/C=C/C=C/C(=O)[O-].C/C=C/C=C/C(=O)[O-].[Zn+2] [zinc salt of sorbic acid]
[5]
  Activity as wood preservative: inactive
